Experimental data: patent US10800790B2, “Sesquiterpenoid STAT3 inhibitors” (University of Hawaii, priority 2013, dated 2020)

What was measured:
[1] = tested on: pY705STAT3 in U251MG or MDA-MB-231 cells; experiment: Immunoblotting of pY705STAT3 in treated tumor cells; conditions: 5 micromolar, U251MG or MDA-MB-231; for Effect on pY705STAT3 / STAT3 activity (immunoblot), in words: 0-24 h, Table 1/FIG. 2 numbering
Protocol: Positions of STATs:DNA complexes or proteins in gel are labeled; control lanes (0) represent nuclear extracts or whole-cell lysates prepared from 0.05% DMSO-treated cells. Data are representative of at least three to four independent determinations.
Lysates of equal total protein prepared in the lysis buffer (50 mM Hepes, pH 7.5, 150 mM NaCl, 2 mM EDTA, 1% Triton X-100, 0.1% SDS), were subjected to IP or Western blotting analysis. Antibodies against STAT3, pY705STAT3, Src, pY416Src, Erk1/2, and pT202/Y204Erk1/2 and GAPDH (Cell Signaling Technology, Danvers, Mass.), and anti-β-actin, and HSP105 (Santa Cruz Biotechnology, Dallas, Tex.) are from the designated sources.
Whole-cell lysates were prepared in boiling SDS sample loading buffer to extract total proteins, as reported previously. […] Nitrocellulose membranes were probed with primary antibodies, and the detection of horseradish peroxidase-conjugated secondary antibodies by enhanced chemiluminescence (Amersham) was performed. Antibodies used were monoclonal anti-pYSTAT3 and anti-STAT3 antibodies (Cell Signaling Technology, Danvers, Mass.).

[2] = tested on: normal NIH3T3 mouse fibroblasts; experiment: CyQuant cell viability/proliferation assay, NIH3T3; format: cell-based; design: key to Activity against 3T3: +, active; −, no activity; +/−, poorly active; conditions: for NIH-3T3 % inhibition / inhibition at 5 µM: at 5 μM, 72 h; for inhibition at 5 µM: Mus musculus, NIH3T3, read-out: NIH-3T3 % inhibition
Protocol: (§1) The cell viability assay was performed as previously reported (Zhang X, et al. (2010)). Briefly, a 10 millimolar concentration stock solution in dimethylsulfoxide (DMSO) of the tested molecule was first prepared. Next, the stock solution was diluted down to various working solutions in water. Thus, a formulation of the tested compound in a DMSO/water mixture was used to test for cell viability. (A novel small-molecule disrupts STAT3 SH2 domainphosphotyrosine interactions and STAT3-dependent tumor processes, Biochem Pharmacol 79:1398-1409; Zhao W, Jaganathan S, & Turkson J (2010), A cell-permeable STAT3 SH2 domain mimetic inhibits STAT3 activation and induces antitumor cell effects in vitro. J Biol Chem. 285:35855-35865). Cells (U251MG, MDA-MB-231 or NIH3T3) were obtained from ATCC (Manassas, Va.) and were cultured in 96-well plates at 2,000 cells per well for 24 h and were treated with compounds (5 micromolar concentration) for 72 h. Cell viabilty was determined using CyQuant assay, according to the manufacturer's (Invitrogen, CA, USA) instructions. Relative viability of the treated cells was normalized to the DMSO-treated control cells.

[3] = tested on: U251MG glioblastoma cells; experiment: CyQuant cell viability/proliferation assay, U251MG; format: cell-based, human; design: key to Activity against U251: +, active; −, no activity; +/−, poorly active; conditions: for Inhibitory effect on viability of U251MG (tumor) cells, in words: 5 micromolar; for Inhibitory effect on viability of U251MG (tumor) cells, in words / U251MG % inhibition / inhibition at 5 µM: Table 3 numbering (isolates 1-16); for U251MG % inhibition / inhibition at 5 µM: at 5 μM, 72 h; for inhibition at 5 µM: Homo sapiens, U-251; for Activity against U251: Table 1 grade, Table 1/FIG. 2 compound numbering; for Activity against the cell lines, in words: tested at 5 micromolar; for Cell-type selectivity of growth inhibition, in words: U251MG versus other cells incl. NIH3T3; for Inhibitory potency compared with 22 (CyQuant): FIG. 10, synthetic derivatives of 22
Protocol: as §1

[4] = tested on: MDA-MB-231 breast cancer cells; experiment: CyQuant cell viability/proliferation assay, MDA-MB-231; format: cell-based, human; design: key to Activity against 231: +, active; −, no activity; +/−, poorly active; conditions: for MDA-MB-231 % inhibition / inhibition at 5 µM: at 5 μM, 72 h, Table 3 numbering (isolates 1-16); for inhibition at 5 µM: Homo sapiens, MDA-MB-231; for Inhibition of breast cancer MDA-MB-231, in words: 72-h treatment, FIG. 10
Protocol: as §1

[5] = biological target: Stat3 (Homo sapiens, UniProt P40763); experiment: Activity against Stat3 (Table 1 grade); format: biochemical; design: key: +, active; −, no activity; +/−, poorly active; conditions: Table 1/FIG. 2 compound numbering
[6] = biological target: T1, STAT3 (NIH3T3/v-Src nuclear extracts) (Mus musculus, UniProt P42227); experiment: In vitro STAT3 DNA-binding activity/EMSA, nuclear extracts incubated with compound; format: biochemical; conditions: 5 micromolar, 30 min at room temperature
T1 construct: nuclear extracts prepared from v-Src-transformed mouse fibroblasts (NIH3T3/v-Src) containing active STAT3; endogenous in cells; host or cells: NIH3T3/v-Src mouse fibroblasts (nuclear extract)
Protocol: To further determine the effects of the bioactive agents on STAT3 activity, nuclear extracts prepared from v-Src-transformed mouse fibroblasts (NIH3T3/v-Src) containing active STAT3 were directly incubated with 5 micromolar compounds for 30 min at room temperature prior to performing STAT3 DNA-binding activity in vitro with EMSA analysis. […] These studies indicate that agents directly interact with STAT3 and disrupt STAT3:STAT3 dimers, thereby inhibiting its DNA-binding activity.
Data are representative of 2-3 independent determinations.
Nuclear extract preparations and DNA-binding/electrophoretic mobility shift assay (EMSA) were carried out as previously described (Xu, supra). Nuclear extract preparations and DNA-binding activity/electrophoretic mobility shift assay (EMSA) were carried out as previously described. U251 MG and MDA-MB-231 cells culture were pretreated with different concentrations of the compounds for the indicated period and then harvested for nuclear extract preparation and DNA-binding assay with EMSA analysis. The ^32P-labeled oligonucleotide probe used was hSIE (high-affinity sis-inducible element) from the c-fos gene, m67 variant (5′-[…]-3′) that binds STAT3. Except where indicated, nuclear extracts were pre-incubated with compound for 30 min at room temperature prior to incubation with the radiolabeled probe for 30 min at 30° C. before subjecting to EMSA analysis. Where appropriate, bands corresponding to DNA-binding activities were scanned and quantified for each concentration of compound using ImageJ and plotted as percent of control (vehicle) against concentration of compound, from which the IC50 values were derived.

[7] = tested on: STAT3 DNA-binding activity; experiment: STAT3 DNA-binding activity (EMSA) of nuclear extracts from treated tumor cells; conditions: 5 micromolar, time course
Protocol: Positions of STATs:DNA complexes or proteins in gel are labeled; control lanes (0) represent nuclear extracts or whole-cell lysates prepared from 0.05% DMSO-treated cells.
Nuclear extract preparations and DNA-binding/electrophoretic mobility shift assay (EMSA) were carried out as previously described (Xu, supra). Nuclear extract preparations and DNA-binding activity/electrophoretic mobility shift assay (EMSA) were carried out as previously described. U251 MG and MDA-MB-231 cells culture were pretreated with different concentrations of the compounds for the indicated period and then harvested for nuclear extract preparation and DNA-binding assay with EMSA analysis. […] Except where indicated, nuclear extracts were pre-incubated with compound for 30 min at room temperature prior to incubation with the radiolabeled probe for 30 min at 30° C. before subjecting to EMSA analysis.

[8] = tested on: STAT3 tyrosine phosphorylation; conditions: Butturini et al. 2011; cited from earlier work
[9] = tested on: intracellular glutathione; conditions: literature reports; cited from earlier work
[10] = Table 3 numbering (isolates 1-16)
[11] = Table 1 grade, Table 1/FIG. 2 compound numbering

Stat3, sequence (P40763 whole entry, species assumed): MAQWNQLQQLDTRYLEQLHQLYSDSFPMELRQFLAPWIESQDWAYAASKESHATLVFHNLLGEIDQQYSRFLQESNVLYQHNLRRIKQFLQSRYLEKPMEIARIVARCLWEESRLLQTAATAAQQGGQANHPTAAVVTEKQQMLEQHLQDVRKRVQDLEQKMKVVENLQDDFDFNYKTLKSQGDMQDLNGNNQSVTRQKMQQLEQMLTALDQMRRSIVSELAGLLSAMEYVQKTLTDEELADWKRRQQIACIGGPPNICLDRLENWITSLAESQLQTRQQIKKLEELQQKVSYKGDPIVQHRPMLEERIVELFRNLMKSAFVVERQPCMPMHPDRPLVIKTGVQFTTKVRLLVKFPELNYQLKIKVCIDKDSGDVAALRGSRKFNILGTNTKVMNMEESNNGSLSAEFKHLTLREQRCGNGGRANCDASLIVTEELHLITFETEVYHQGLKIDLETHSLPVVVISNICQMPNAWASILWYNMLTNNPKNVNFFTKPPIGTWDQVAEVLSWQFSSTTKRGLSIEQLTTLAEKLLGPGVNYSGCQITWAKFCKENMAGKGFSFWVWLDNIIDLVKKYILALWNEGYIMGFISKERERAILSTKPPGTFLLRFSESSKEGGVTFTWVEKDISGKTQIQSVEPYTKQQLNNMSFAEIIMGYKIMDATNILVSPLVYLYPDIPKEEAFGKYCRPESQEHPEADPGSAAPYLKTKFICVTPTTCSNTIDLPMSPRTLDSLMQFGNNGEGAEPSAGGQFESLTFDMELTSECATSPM
T1 sequence (P42227 whole entry): as the sequence (P40763 whole entry, species assumed) above, with E760D counted along it

Molecule: 8α-(2′Z-tigloyloxy)hirsutinolide-13-O-acetate [Compound 2]
- Inhibition of pY705STAT3 (immunoblot), in words [1, 10]: inhibited STAT3 phosphorylation
- NIH-3T3 % inhibition [2, 10]: 8.0%
- Inhibitory effect on viability of U251MG (tumor) cells, in words [3]: weak inhibitory effect
- U251MG % inhibition [3]: 48.6%
- MDA-MB-231 % inhibition [4]: ne (ne, no effect inhibition)

Molecule: 8α-(4-hydroxytigloyloxy)-hirsutinolide [Compound 3]
- NIH-3T3 % inhibition [2, 10]: ne (ne, no effect inhibition)
- U251MG % inhibition [3]: ne (ne, no effect inhibition)
- MDA-MB-231 % inhibition [4]: ne (ne, no effect inhibition)

Molecule: CC=C(C)C(=O)OC1CC(C)C2(O)CCC(C)(C=C3OC(=O)C(CO)=C31)O2 (stereo not drawn) [Compound 1, 8α-(2′Z-tigloyloxy)hirsutinolide]
- NIH-3T3 % inhibition [2, 10]: ne (ne, no effect inhibition)
- U251MG % inhibition [3]: ne (ne, no effect inhibition)
- MDA-MB-231 % inhibition [4]: ne (ne, no effect inhibition)

Molecule: CC=C(C)C(=O)OCC1=C2C(=CC3(C)CCC(O)(O3)C(C)CC2O)OC1=O (stereo not drawn) [Compound 4, 8α-hydroxy-13-O-tigloyl-hirsutinolide]
- Inhibitory effect on NIH3T3 fibroblasts, in words ([2]; 5 micromolar, Table 3 numbering (isolates 1-16)): lower inhibitory effect
- NIH-3T3 % inhibition [2, 10]: 32.1%
- Inhibitory effect on viability of U251MG (tumor) cells, in words [3]: high inhibitory effect
- U251MG % inhibition [3]: 80.9%
- MDA-MB-231 % inhibition [4]: 26.2%

Molecule: C=C(C)C(=O)OC1CC(C)C2(O)CCC(C)(C=C3OC(=O)C(CO)=C31)O2 (stereo not drawn) [Compound 5, 8α-(2-methylacryloyloxy)-hirsutinolide]
- NIH-3T3 % inhibition [2, 10]: ne (ne, no effect inhibition)
- U251MG % inhibition [3]: ne (ne, no effect inhibition)
- MDA-MB-231 % inhibition [4]: ne (ne, no effect inhibition)

Molecule: CC1(C)C[C@H](O)C[C@@]2(C)OC(=O)C=C12 [Compound 12, loliolide]
- inhibition at 5 µM [2, 10]: < 6%
- inhibition at 5 µM [3]: < 6%
- inhibition at 5 µM [4]: < 6%

Molecule: O=c1cc(-c2ccc(O)cc2)oc2cc(O)cc(O)c12 [Compound 15, apigenine]
- inhibition at 5 µM [2, 10]: < 6%
- inhibition at 5 µM [3]: < 6%
- inhibition at 5 µM [4]: < 6%

Molecule: C=C(C)C(=O)OC1CC(C)C2(O)CCC(C)(C=C3OC(=O)C(CO)=C31)O2 (stereo not shown) [Compound 18]
- Activity against Stat3 [5]: −
- Effect on pY705STAT3 / STAT3 activity (immunoblot), in words [1]: little effects on pY705STAT3
- Inhibition of STAT3 DNA-binding activity in vitro (EMSA) [6]: moderate to no effect
- Activity against U251 [3]: +/−
- Activity against the cell lines, in words ([3]; Table 1/FIG. 2 numbering): moderate to weak activity

Molecule: CC=C(C)C(=O)OC1CC(C)C2(O)CCC(C)(C=C3OC(=O)C(CO)=C31)O2 (stereo not shown) [Compound 19]
- Activity against Stat3 [5]: −
- Effect on pY705STAT3 / STAT3 activity (immunoblot), in words [1]: little effects on pY705STAT3
- Inhibition of STAT3 DNA-binding activity in vitro (EMSA) [6]: moderate to no effect
- Activity against U251 [3]: −
- Activity against the cell lines, in words ([3]; Table 1/FIG. 2 numbering): moderate to weak activity

Molecule: CC=C(C)C(=O)OC1CC(C)C2(O)CCC(C)(C=C3OC(=O)C(COC(C)=O)=C31)O2 (stereo not shown) [Compound 20]
- Activity against Stat3 [5]: +
- Effect on pY705STAT3 / STAT3 activity (immunoblot), in words [1]: early inhibition at 15-30 min
- Inhibition of STAT3 DNA-binding activity in treated cells (EMSA) [7]: early inhibition at 15-30 min
- Inhibition of STAT3 DNA-binding activity in vitro (EMSA) [6]: strong inhibition
- Activity against 3T3 [2, 11]: +/−
- IC50 ([3]; 72-h treatment, Table 1/FIG. 2 numbering, read-out: IC50 for the inhibition of U251MG cell viability): 4.3 µM
- Cell-type selectivity of growth inhibition, in words ([3]; Table 1/FIG. 2 numbering): selective against the growth of human glioma U251MG cells
- Activity against 231 [4, 11]: +

Molecule: C=C(C)C(=O)OC1CC(C)C2(OC)CCC(C)(C=C3OC(=O)C(CO)=C31)O2 (stereo not shown) [Compound 28]
- Activity against Stat3 [5]: −
- Effect on pY705STAT3 / STAT3 activity (immunoblot), in words [1]: little effects on pY705STAT3
- Inhibition of STAT3 DNA-binding activity in vitro (EMSA) [6]: moderate to no effect
- Activity against U251 [3]: −
- Activity against the cell lines, in words ([3]; Table 1/FIG. 2 numbering): moderate to weak activity

Molecule: C=C1CC[C@H]2C(=C)CC[C@H]3C(=C)C(=O)O[C@@H]3[C@@H]12 [dehydrocostuslactone]
- Tyrosine-phosphorylation of STAT3 in cells treated with IL-6 [8]: inhibited the tyrosine-phosphorylation of STAT3
- Intracellular glutathione content [9]: rapid drop in intracellular glutathione content

Molecule: C/C1=C\[C@H]2OC(=O)[C@@H](C)[C@@H]2CC/C(C)=C/CC1 [dihydrocostunolide]
- Tyrosine-phosphorylation of STAT3 in cells treated with IL-6 [8]: failed to exert inhibitory action toward STAT3 tyrosine phosphorylation

Molecule: C/C=C(\C)C(=O)OCC1=C2/C(=C\C3(C)CCC(O)(O3)[C@H](C)C[C@@H]2OC(=O)/C(C)=C/C)OC1=O (stereo partly drawn) [zmm-1-36, (4S,6R,E)-7-hydroxy-6,10-dimethyl-3-((((E)-2-methylbut-2-enoyl)oxy)methyl)-2-oxo-2,4,5,6,7,8,9,10-octahydro-7,10-epoxycyclodeca[b]furan-4-yl(E)-2-methylbut-2-enoate]
- Effect on pY705STAT3 / STAT3 activity (immunoblot), in words [1]: inhibited pY705STAT3
- Inhibitory potency compared with 22 (CyQuant) ([3]; 72-h treatment): retained the inhibitory potency as 22
- Cell-type selectivity of growth inhibition, in words ([3]; Table 1/FIG. 2 numbering): lost cell-type specificity

Molecule: C/C=C(\C)C(=O)OCC1=C2/C(=C\C3(C)CCC(OC)(O3)[C@H](C)C[C@@H]2OC(=O)/C(C)=C/C)OC1=O (stereo partly drawn) [zmm-1-37, (4S,6R,E)-7-methoxy-6,10-dimethyl-3-((((E)-2-methylbut-2-enoyl)oxy)methyl)-2-oxo-2,4,5,6,7,8,9,10-octahydro-7,10-epoxycyclodeca[b]furan-4-yl(E)-2-methylbut-2-enoate]
- Effect on pY705STAT3 / STAT3 activity (immunoblot), in words [1]: inhibited pY705STAT3
- Inhibitory potency compared with 22 (CyQuant) ([3]; 72-h treatment): retained the inhibitory potency as 22
- Inhibition of breast cancer MDA-MB-231, in words [4]: also inhibited breast cancer, MDA-MB-231

Molecule: C[C@@H]1C[C@H](O)C2=C(COC(=O)/C=C/c3ccc(F)cc3)C(=O)O/C2=C/C2(C)CCC1(O)O2 (stereo partly shown) [zmm-1-78]
- Inhibition of breast cancer MDA-MB-231, in words [4]: also inhibited breast cancer, MDA-MB-231

Molecule: (9Z,12S,13S)-dihydroxy-9-octadecanoic acid [Compound 16]
- NIH-3T3 % inhibition [2, 10]: ne (ne, no effect inhibition)
- U251MG % inhibition [3]: ne (ne, no effect inhibition)
- MDA-MB-231 % inhibition [4]: ne (ne, no effect inhibition)
